Active and inactive are the calls of the source. The calls are words filed in the database; no cut-off is given here.
How the values were obtained:
[1] = Toxicity in golden hamster infected with Leishmania (Viannia) braziliensis HMOM/COL/88/UA301-EGFP assessed as effect on serum BUN level at 2.6% administered topically as cream formulation for 20 days and measured day 8 post last treatment; parameters: species or system Mesocricetus auratus; settings: in vivo, topical_or_ocular, 480 h
[2] = Cytotoxicity against human U937 cells after 72 hrs by MTT assay; format: cell-based, U-937; settings: read-out: LC50
[3] = Toxicity in golden hamster infected with Leishmania (Viannia) braziliensis HMOM/COL/88/UA301-EGFP assessed as change in body weight at 2.6% administered topically as cream formulation for 20 days measured up to 90 days post last dose; parameters: species or system Mesocricetus auratus; settings: in vivo, topical_or_ocular
[4] = Hepatotoxicity in golden hamster infected with Leishmania (Viannia) braziliensis HMOM/COL/88/UA301-EGFP assessed as vacuolar degeneration at 2.6% administered topically as cream formulation for 20 days measured 90 days post last dose by histopathological analysis; format: toxicity, Mesocricetus auratus; settings: in vivo, topical_or_ocular, 2160 h
[5] = Toxicity in golden hamster infected with Leishmania (Viannia) braziliensis HMOM/COL/88/UA301-EGFP assessed as effect on serum alanine aminotransferase level at 2.6% administered topically as cream formulation for 20 days and measured day 8 post last treatment; parameters: species or system Mesocricetus auratus; settings: in vivo, topical_or_ocular, 480 h
Leishmania braziliensis [6] = assay: Antileishmanial activity against Leishmania (Viannia) braziliensis HMOM/COL/88/UA301-EGFP infected in golden hamster assessed as clinical failure at 2.6% administered topically as cream formulation for 20 days measured 3 months post last dose relative to control; format: functional
Leishmania braziliensis [7] = assay: Antileishmanial activity against Leishmania (Viannia) braziliensis HMOM/COL/88/UA301-EGFP intracellular amastigotes infected in human U937 cells after 72 hrs by flow cytometric analysis; format: functional, organism-based; settings: HMOM/COL/88/UA301, U-937, 72 h
[8] = Selectivity index, ratio of LC50 for human U937 cells to EC50 for Leishmania (Viannia) braziliensis HMOM/COL/88/UA301-EGFP intracellular amastigotes infected in human U937 cells; format: toxicity, cell-based; settings: read-out: Selectivity Index
[9] = Toxicity in golden hamster infected with Leishmania (Viannia) braziliensis HMOM/COL/88/UA301-EGFP assessed as effect on serum creatinine level at 2.6% administered topically as cream formulation for 20 days and measured day 8 post last treatment; parameters: species or system Mesocricetus auratus; settings: in vivo, topical_or_ocular, 480 h
[10] = Renal toxicity in golden hamster infected with Leishmania (Viannia) braziliensis HMOM/COL/88/UA301-EGFP assessed as vacuolar degeneration at 2.6% administered topically as cream formulation for 20 days measured 90 days post last dose by histopathological analysis; parameters: species or system Mesocricetus auratus; settings: in vivo, topical_or_ocular, 2160 h
[11] = Hepatotoxicity in golden hamster infected with Leishmania (Viannia) braziliensis HMOM/COL/88/UA301-EGFP assessed as infiltration of macrophages at 2.6% administered topically as cream formulation for 20 days measured 90 days post last dose by histopathological analysis; format: toxicity, Mesocricetus auratus; settings: in vivo, topical_or_ocular, 2160 h
[12] = Hepatotoxicity in golden hamster infected with Leishmania (Viannia) braziliensis HMOM/COL/88/UA301-EGFP assessed as hemosiderin pigmentation at 2.6% administered topically as cream formulation for 20 days measured 90 days post last dose by histopathological analysis; format: toxicity, Mesocricetus auratus; settings: in vivo, topical_or_ocular, 2160 h
[13] = Hepatotoxicity in golden hamster infected with Leishmania (Viannia) braziliensis HMOM/COL/88/UA301-EGFP assessed as infiltration of lymphocytes at 2.6% administered topically as cream formulation for 20 days measured 90 days post last dose by histopathological analysis; format: toxicity, Mesocricetus auratus; settings: in vivo, topical_or_ocular, 2160 h
Leishmania braziliensis [14] = assay: Antileishmanial activity against Leishmania (Viannia) braziliensis HMOM/COL/88/UA301-EGFP infected in golden hamster assessed as cure rate at 2.6% administered topically as cream formulation for 20 days measured 3 months post last dose relative to control; format: functional
Syrian golden hamster [15] = assay: Antiinflammatory activity in golden hamster infected with Leishmania (Viannia) braziliensis HMOM/COL/88/UA301-EGFP assessed as re-epithelialization in skin at 2.6% administered topically as cream formulation for 20 days and measured 3 months post last treatment by histopathological analysis; format: functional, organism-based; settings: Mesocricetus auratus
Leishmania braziliensis [16] = assay: Antileishmanial activity against Leishmania (Viannia) braziliensis HMOM/COL/88/UA301-EGFP infected in golden hamster assessed as clinical improvement at 2.6% administered topically as cream formulation for 20 days measured 3 months post last dose relative to control; format: functional
[17] = Hepatotoxicity in golden hamster infected with Leishmania (Viannia) braziliensis HMOM/COL/88/UA301-EGFP assessed as congestion at 2.6% administered topically as cream formulation for 20 days measured 90 days post last dose by histopathological analysis; format: toxicity, Mesocricetus auratus; settings: in vivo, topical_or_ocular, 2160 h
Syrian golden hamster [18] = assay: Antiinflammatory activity in golden hamster infected with Leishmania (Viannia) braziliensis HMOM/COL/88/UA301-EGFP assessed as migration of lymphocytes in skin at 2.6% administered topically as cream formulation for 20 days and measured 3 months post last treatment by histopathological analysis; format: functional, organism-based; settings: Mesocricetus auratus
Leishmania braziliensis [19] = assay: Antileishmanial activity against Leishmania (Viannia) braziliensis HMOM/COL/88/UA301-EGFP infected in golden hamster assessed as relapse at 2.6% administered topically as cream formulation for 20 days measured 3 months post last dose relative to control; format: functional
Syrian golden hamster [20] = assay: Antiinflammatory activity in golden hamster infected with Leishmania (Viannia) braziliensis HMOM/COL/88/UA301-EGFP assessed as migration of macrophages in skin at 2.6% administered topically as cream formulation for 20 days and measured 3 months post last treatment by histopathological analysis; format: functional, organism-based; settings: Mesocricetus auratus
Syrian golden hamster [21] = assay: Antiinflammatory activity in golden hamster infected with Leishmania (Viannia) braziliensis HMOM/COL/88/UA301-EGFP assessed as migration of plasmocytes in skin at 2.6% administered topically as cream formulation for 20 days and measured 3 months post last treatment by histopathological analysis; format: functional, organism-based; settings: Mesocricetus auratus
[22] = Toxicity in golden hamster infected with Leishmania (Viannia) braziliensis HMOM/COL/88/UA301-EGFP assessed as change in body weight at 200 ug administered intralesionally twice per week for 4 weeks measured up to 90 days post last dose; parameters: species or system Mesocricetus auratus; settings: in vivo, other
[23] = Renal toxicity in golden hamster infected with Leishmania (Viannia) braziliensis HMOM/COL/88/UA301-EGFP assessed as vacuolar degeneration at 200 ug administered intralesionally twice per week for 4 weeks measured 90 days post last dose by histopathological analysis; parameters: species or system Mesocricetus auratus; settings: in vivo, other, 2160 h
[24] = Renal toxicity in golden hamster infected with Leishmania (Viannia) braziliensis HMOM/COL/88/UA301-EGFP assessed as edema at 200 ug administered intralesionally twice per week for 4 weeks measured 90 days post last dose by histopathological analysis; parameters: species or system Mesocricetus auratus; settings: in vivo, other, 2160 h
[25] = Hepatotoxicity in golden hamster infected with Leishmania (Viannia) braziliensis HMOM/COL/88/UA301-EGFP assessed as infiltration of macrophages at 200 ug administered intralesionally twice per week for 4 weeks measured 90 days post last dose by histopathological analysis; format: toxicity, Mesocricetus auratus; settings: in vivo, other, 2160 h
[26] = Toxicity in golden hamster infected with Leishmania (Viannia) braziliensis HMOM/COL/88/UA301-EGFP assessed as effect on serum creatinine level at 200 ug administered intralesionally twice per week for 4 weeks measured day 8 post last treatment; parameters: species or system Mesocricetus auratus; settings: in vivo, other, 672 h
[27] = Renal toxicity in golden hamster infected with Leishmania (Viannia) braziliensis HMOM/COL/88/UA301-EGFP assessed as turbid degeneration at 200 ug administered intralesionally twice per week for 4 weeks measured 90 days post last dose by histopathological analysis; parameters: species or system Mesocricetus auratus; settings: in vivo, other, 2160 h
[28] = Renal toxicity in golden hamster infected with Leishmania (Viannia) braziliensis HMOM/COL/88/UA301-EGFP assessed as infiltration of plasma cells at 200 ug administered intralesionally twice per week for 4 weeks measured 90 days post last dose by histopathological analysis; parameters: species or system Mesocricetus auratus; settings: in vivo, other, 2160 h
[29] = Hepatotoxicity in golden hamster infected with Leishmania (Viannia) braziliensis HMOM/COL/88/UA301-EGFP assessed as vacuolar degeneration at 200 ug administered intralesionally twice per week for 4 weeks measured 90 days post last dose by histopathological analysis; format: toxicity, Mesocricetus auratus; settings: in vivo, other, 2160 h
[30] = Renal toxicity in golden hamster infected with Leishmania (Viannia) braziliensis HMOM/COL/88/UA301-EGFP assessed as infiltration of lymphocytes at 200 ug administered intralesionally twice per week for 4 weeks measured 90 days post last dose by histopathological analysis; parameters: species or system Mesocricetus auratus; settings: in vivo, other, 2160 h
[31] = Renal toxicity in golden hamster infected with Leishmania (Viannia) braziliensis HMOM/COL/88/UA301-EGFP assessed as fibrosis at 200 ug administered intralesionally twice per week for 4 weeks measured 90 days post last dose by histopathological analysis; parameters: species or system Mesocricetus auratus; settings: in vivo, other, 2160 h
[32] = Hepatotoxicity in golden hamster infected with Leishmania (Viannia) braziliensis HMOM/COL/88/UA301-EGFP assessed as congestion at 200 ug administered intralesionally twice per week for 4 weeks measured 90 days post last dose by histopathological analysis; format: toxicity, Mesocricetus auratus; settings: in vivo, other, 2160 h
[33] = Hepatotoxicity in golden hamster infected with Leishmania (Viannia) braziliensis HMOM/COL/88/UA301-EGFP assessed as external stress condition induced changes at 200 ug administered intralesionally twice per week for 4 weeks measured 90 days post last dose by histopathological analysis; format: toxicity, Mesocricetus auratus; settings: in vivo, other, 2160 h
[34] = Hepatotoxicity in golden hamster infected with Leishmania (Viannia) braziliensis HMOM/COL/88/UA301-EGFP assessed as hyperplasia at 200 ug administered intralesionally twice per week for 4 weeks measured 90 days post last dose by histopathological analysis; format: toxicity, Mesocricetus auratus; settings: in vivo, other, 2160 h
[35] = Toxicity in golden hamster infected with Leishmania (Viannia) braziliensis HMOM/COL/88/UA301-EGFP assessed as effect on serum alanine aminotransferase level at 200 ug administered intralesionally twice per week for 4 weeks measured day 8 post last treatment; parameters: species or system Mesocricetus auratus; settings: in vivo, other, 672 h
[36] = Hepatotoxicity in golden hamster infected with Leishmania (Viannia) braziliensis HMOM/COL/88/UA301-EGFP assessed as infiltration of lymphocytes at 200 ug administered intralesionally twice per week for 4 weeks measured 90 days post last dose by histopathological analysis; format: toxicity, Mesocricetus auratus; settings: in vivo, other, 2160 h
[37] = Hepatotoxicity in golden hamster infected with Leishmania (Viannia) braziliensis HMOM/COL/88/UA301-EGFP assessed as hemosiderin pigmentation at 200 ug administered intralesionally twice per week for 4 weeks measured 90 days post last dose by histopathological analysis; format: toxicity, Mesocricetus auratus; settings: in vivo, other, 2160 h
[38] = Toxicity in golden hamster infected with Leishmania (Viannia) braziliensis HMOM/COL/88/UA301-EGFP assessed as effect on serum BUN level at 200 ug administered intralesionally twice per week for 4 weeks measured day 8 post last treatment; parameters: species or system Mesocricetus auratus; settings: in vivo, other, 672 h

C[C@]12C=C[C@@]3(CC[C@@H]4[C@@](C)(CO)CCC[C@@]4(C)[C@@H]3CC1)C2
Activity [1]: Non-Toxic | CC50 at 72 h [2]: 122 µM | Activity [3]: Non-Toxic | Activity [4]: Toxic | Activity [5]: Non-Toxic | Activity (Leishmania braziliensis [6]): 33.3% | EC50 (Leishmania braziliensis [7]): 18.1 µM | selectivity ratio [8]: 7.7 | Activity [9]: Non-Toxic | Activity [10]: Toxic | Activity [11]: Toxic | Activity [12]: Toxic | Activity [13]: Toxic | Activity (Leishmania braziliensis [14]): 50% | Activity (Syrian golden hamster [15]): Active | Activity (Leishmania braziliensis [16]): 0% | Activity [17]: Toxic | Activity (Syrian golden hamster [18]): Active | Activity (Leishmania braziliensis [19]): 16.7% | Activity (Syrian golden hamster [20]): Active | Activity (Syrian golden hamster [21]): Active

MEGLUMINE ANTIMONATE
Activity [22]: Toxic | Activity [23]: Toxic | Activity [24]: Toxic | Activity [25]: Toxic | Activity [26]: Non-Toxic | Activity [27]: Toxic | Activity [28]: Toxic | Activity [29]: Toxic | Activity [30]: Toxic | Activity [31]: Toxic | Activity [32]: Toxic | Activity [33]: Toxic | Activity [34]: Toxic | Activity [35]: Non-Toxic | Activity [36]: Toxic | Activity [37]: Toxic | Activity [38]: Non-Toxic

— ChEMBL document CHEMBL4308897, “Antileishmanial activity and cytotoxicity of ent-beyerene diterpenoids” (Bioorg Med Chem, 2019)
